Series [1] deals with T1, hGLP-1R (Homo sapiens, UniProt P43220). The series can be described thus: Functional cAMP activation in the presence of 0.1% casein (no HSA). It is filed as cell-based. As to conditions: in the presence of 0.1% casein (no HSA); geometric mean; read-out: Relative cAMP EC50, hGLP-1R.
Target sequence in this assay (P43220 24-463): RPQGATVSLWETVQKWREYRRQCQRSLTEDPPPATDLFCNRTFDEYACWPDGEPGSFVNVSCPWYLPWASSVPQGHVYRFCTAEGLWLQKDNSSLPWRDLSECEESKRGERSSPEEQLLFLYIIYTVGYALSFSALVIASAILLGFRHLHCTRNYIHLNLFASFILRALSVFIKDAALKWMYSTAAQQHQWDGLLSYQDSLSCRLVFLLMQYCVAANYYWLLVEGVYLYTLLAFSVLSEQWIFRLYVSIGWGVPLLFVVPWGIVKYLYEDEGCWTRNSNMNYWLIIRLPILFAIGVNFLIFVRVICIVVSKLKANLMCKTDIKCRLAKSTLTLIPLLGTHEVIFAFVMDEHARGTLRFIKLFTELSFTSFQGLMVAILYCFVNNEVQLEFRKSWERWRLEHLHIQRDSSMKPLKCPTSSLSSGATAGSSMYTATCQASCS
Series [2] deals with T2, hGIPR (Homo sapiens, UniProt P48546).
T2 sequence (P48546 22-466): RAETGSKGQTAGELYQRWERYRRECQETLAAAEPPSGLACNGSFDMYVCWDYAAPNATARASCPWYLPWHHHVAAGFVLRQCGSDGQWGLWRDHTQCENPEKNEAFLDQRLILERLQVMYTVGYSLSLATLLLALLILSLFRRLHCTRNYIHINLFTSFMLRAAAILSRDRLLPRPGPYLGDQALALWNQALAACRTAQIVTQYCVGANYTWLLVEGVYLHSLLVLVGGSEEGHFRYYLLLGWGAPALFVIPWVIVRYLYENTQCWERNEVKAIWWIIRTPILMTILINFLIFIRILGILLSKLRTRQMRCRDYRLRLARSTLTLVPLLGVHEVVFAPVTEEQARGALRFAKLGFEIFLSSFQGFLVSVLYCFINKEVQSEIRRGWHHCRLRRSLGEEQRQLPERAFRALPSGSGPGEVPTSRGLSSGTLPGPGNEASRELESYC
The description is as above. It is filed as cell-based. As to conditions: in the presence of 0.1% casein (no HSA); geometric mean; read-out: Relative cAMP EC50, hGIPR.

Series [3] deals with T1, hGLP-1R. The series can be described thus: GLP-1R CHO cell β-arrestin recruitment assay.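 As to all read-outs here: luminescence read after 90 min peptide exposure at 37 °C and a further 60 min with detection reagent at room temperature.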 It is filed as cell-based. Details: host or cells: CHO-K1 (PathHunter, assay-ready frozen cells). As to conditions: for EC50: CHO-K1 PathHunter, β-arrestin-2, 0.1% casein, read-out: hGLP1R β-arrestin Rel EC50; for % Stimulation Max: normalized to GLP-1(7-36) as maximum control. A general note: Recruitment of arrestin is a read-out of receptor activation apart from second messengers.
Target sequence in this assay (P43220 24-463): as the sequence (P43220 24-463) above
Target sequence in this assay (P32121 whole entry partner): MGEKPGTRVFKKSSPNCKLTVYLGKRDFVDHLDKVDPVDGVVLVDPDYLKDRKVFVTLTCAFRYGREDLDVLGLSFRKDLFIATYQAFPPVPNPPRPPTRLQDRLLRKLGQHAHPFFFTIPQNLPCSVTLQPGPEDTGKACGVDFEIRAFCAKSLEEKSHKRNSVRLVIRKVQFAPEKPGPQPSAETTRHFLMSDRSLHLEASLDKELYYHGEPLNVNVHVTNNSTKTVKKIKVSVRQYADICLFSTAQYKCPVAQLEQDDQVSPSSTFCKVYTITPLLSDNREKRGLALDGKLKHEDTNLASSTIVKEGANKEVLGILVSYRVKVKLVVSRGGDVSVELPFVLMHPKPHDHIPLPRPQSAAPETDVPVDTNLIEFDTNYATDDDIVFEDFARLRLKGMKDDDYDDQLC
Experimental: CHO-KI cells expressing Pro-Link-tagged Human GLP-1R and enzyme-acceptor-tagged β-arrestin-2 may be obtained from DiscoveRx and prepared as assay-ready frozen cells. Test peptides are solubilized in DMSO and serial dilutions are performed using the Echo acoustic dispenser (LabCyte). Assay media is the PathHunter Cell Assay Buffer (DiscoveRx) containing 0.1% w/v hydrolyzed Casein (Sigma). […] Plates are incubated for 90 minutes in a 37′C/5% C02 incubator and 10 μl of PathHunter detection reagent is added (DiscoveRx) and plates are incubated at room temperature for 60 minutes. Luminescence signal is measured. Peptide concentration-response curves fit to a four-parameter logistic model to calculate potency as an EC50.

The target of the next series is hGcgR (Homo sapiens, UniProt P47871). The series can be described thus: Functional cAMP activation in the presence of 0.1% casein (no HSA). It is filed as cell-based. As to conditions: in the presence of 0.1% casein (no HSA); geometric mean; read-out: Relative cAMP EC50, hGcgR.
Series [4] in a line: Body weight in diet-induced obese C57BL/6 mice. The series is classed as in vivo. As to conditions: percent of starting weight, DIO mice, mean ± SEM n=5. The method, then:
To investigate the effect of the polypeptides as described herein on weight loss, exemplary polypeptides are dosed to C57BL/6 diet-induced obese (DIO) mice. Specifically, DIO male C57BL/6 mice (Taconic, Germantown, NY) maintained on a calorie-rich diet are used in the following studies. Mice are individually housed in a temperature-controlled (24° C.) facility with 12-hour light/dark cycle (lights on 22:00) and free access to food (TD95217) and water. After a minimum of 2 weeks acclimation to the facility, the mice are randomized according to their body weight, so each experimental group of animals would have similar starting body weight. The body weights range from 41 to 50 g. All groups contain 5 mice. […] Treatments are administered by subcutaneous (SC) injection (10 mL/kg) to ad libitum fed DIO mice 30 to 90 minutes prior to the onset of the dark cycle either once daily (QD) or once every 3 days (Q3D) for 9-16 days. Body weight and food intake are measured daily throughout the study. Body weight is presented as percent of the starting weight. […] Data are presented as mean±SEM of 5 animals per group in Table 7 below. Statistical analysis is performed using repeated measures ANOVA, followed by Dunnett's method comparison test.

The target in series [5] is T2, hGIPR. The series can be described thus: Functional cAMP activity in the presence of 1% HSA. As to conditions: read-out: cAMP Rel EC50, hGIPR. It is filed as cell-based.
For another series, the target named is human GcgR (Homo sapiens, UniProt P47871). The series can be described thus: Functional cAMP activity in the presence of 1% HSA. It is filed as cell-based. As to conditions: read-out: cAMP Rel EC50, hGcgR.
In series [6] the target is T1, hGLP-1R. As to the kind of experiment: Functional cAMP activity in the presence of 1% HSA. As to conditions: read-out: cAMP Rel EC50, hGLP-1R. It is filed as cell-based.
Target sequence in this assay (P43220 24-463): as the sequence (P43220 24-463) above
A further series has as its target human GLP1-R (Homo sapiens, UniProt P43220). The series can be described thus: GLP1-R internalization assay in HEK293 cells. The series is classed as cell-based. As to conditions: for EC50: HEK293 cells expressing SNAP-GLP-1R, read-out: GLP1R Internalization EC50; for Internalization % TOP: normalized to maximum concentration of GLP-1 (100%).
In series [7] the test system is Intestinal organoid from Göttingen minipig jejunum tissue, 2D monolayer. As to the kind of experiment: Cell based in vitro permeability (Papp) assay. The series is classed as in vitro ADME. A digest of the protocol: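 2D monolayers derived from Göttingen minipig jejunal organoids on transwell inserts. Basal samples collected at 20 min in the presence of C10. Peptide in apical and basal compartments quantified by LC/MS to give Papp.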

Marks after values point to notes of the source that are not given here. Starred links: 1 amine or outer side, 2 acyl side, 3 side chain; linkers in the order of their positions; H or OH if unused. Non-standard residues stand in square brackets, D forms with d. Groups on a side chain read outwards from the residue. No end group written: not given here. *: point of attachment. C20 diacid = O=C(O)CCCCCCCCCCCCCCCCCCC(=O)*; C18 diacid = O=C(O)CCCCCCCCCCCCCCCCC(=O)*; αMePhe(2-F) = C[C@](N)(Cc1ccccc1F)C(=O)O; γGlu = O=C(O)[C@H](CCC(=O)[*:2])N[*:1]; NMeY = CN[C@@H](Cc1ccc(O)cc1)C(=O)O; αMeF = C[C@](N)(Cc1ccccc1)C(=O)O; αMeL = CC(C)C[C@](C)(N)C(=O)O; Orn = NCCC[C@H](N)C(=O)O; AEEA = NCCOCCOCC(=O)O; Aib = CC(C)(N)C(=O)O

Data on seven substances can be found in patent publication US20240270821A1, “GIP/GLP1/GCG TRI-RECEPTOR AGONISTS AND USES THEREOF” (priority 2023, published 2024).

In general, EC50 refers to the midpoint of the concentration-response curve.
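For Relative cAMP EC50, hGIPR in this document: intracellular cAMP rise after 30 min at 37 °C read by HTRF against a standard curve, scaled between buffer alone (0%) and top control ligand concentration (100%), four-parameter fit.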
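For Relative cAMP EC50, hGLP-1R in this document: intracellular cAMP rise after 30 min at 37 °C read by HTRF, normalized between buffer only (0%) and maximal control ligand (100%), four-parameter variable-slope fit.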
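For Relative cAMP EC50, hGcgR in this document: intracellular cAMP rise after 30 min at 37 °C, read by HTRF against a cAMP standard curve, scaled from buffer only (0%) to maximal control ligand response (100%).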

hGcgR, sequence (P47871 26-477): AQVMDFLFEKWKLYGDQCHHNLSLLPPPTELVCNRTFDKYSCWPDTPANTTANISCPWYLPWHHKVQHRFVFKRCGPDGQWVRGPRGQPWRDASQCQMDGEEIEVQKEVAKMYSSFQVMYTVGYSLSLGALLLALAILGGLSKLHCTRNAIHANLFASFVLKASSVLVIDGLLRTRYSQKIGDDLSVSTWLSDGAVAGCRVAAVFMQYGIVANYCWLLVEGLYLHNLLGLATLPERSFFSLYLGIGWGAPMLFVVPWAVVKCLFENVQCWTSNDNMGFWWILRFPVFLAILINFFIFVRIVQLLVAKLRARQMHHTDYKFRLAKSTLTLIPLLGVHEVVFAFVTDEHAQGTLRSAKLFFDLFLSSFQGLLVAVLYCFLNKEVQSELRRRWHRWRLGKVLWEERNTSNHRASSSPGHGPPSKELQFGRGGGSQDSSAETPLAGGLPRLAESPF
human GcgR, sequence (P47871 26-477): as above
human GLP1-R, sequence (P43220 24-463): as the sequence (P43220 24-463) above

As to “H-H[Aib]QGT[αMePhe(2-F)]TSDYSILLDKK([AEEA-γGlu-C20 diacid])AA[Aib]AFIEYLIETGPSSGEPPPSEG-NH2 [Example 290]”, the concentration giving a half-maximal response (EC50) amounted to 0.00034 µM on hGLP-1R [1]; 0.00043 µM on hGIPR [2]; 0.00394 µM on hGLP-1R [3]; 0.00268 µM on hGcgR; 0.0534 µM on hGIPR [5]; 0.878 µM at human GcgR. For the same substance, on hGLP-1R [6], the EC50 is 0.09 µM. In addition, at hGLP-1R [3], the “% Stimulation Max” value amounted to 83.5%. Further, the “Body weight (%)” value in series [4] (10 nmol/kg SC QD, 16 days) is 65.40 ± 3.45 %.
For “H-Y[Aib]QGTFTSDFSI[αMeL]LDKK([AEEA-γGlu-C20 diacid])AQ[Aib]AFIEYLLEGGPSSGEPPPSEG-NH2 [Example 288]”, the EC50 at hGLP-1R [1] came to 0.00189 µM; at hGIPR [2], 0.000234 µM; at hGLP-1R [3] it was 0.0163 µM; on hGcgR, 0.00517 µM; at hGIPR [5] it was 0.0591 µM; on human GcgR, 3.58 µM. For the same substance, the EC50 amounted to 0.616 µM on hGLP-1R [6] and 0.0303 µM at human GLP1-R. The “% Stimulation Max” value on hGLP-1R [3] is reported as 18%. Also, the “Body weight (%)” value in [4] (10 nmol/kg SC Q3D, 14 days) came out at 86.18 ± 0.67 %. Also, on human GLP1-R, the “Internalization % TOP” value is recorded as 72.4%.
In the case of “H-Y[Aib]QGTFTSDFS[Orn][αMeL]LDKK([AEEA-γGlu-C18 diacid])AQ[Aib]AFIEWLLEGGPSSGAPPPEGS-NH2 [Example 121]”, in [7], the “Relative Papp (Compared to internal standard)” value (“Relative Papp” below) came out at 0.08. In addition, the EC50 was 0.00238 µM on hGLP-1R [1]; 0.000172 µM at hGIPR [2]; 0.00489 µM on hGcgR; 0.0246 µM at hGIPR [5]; 0.442 µM on human GcgR; 0.348 µM on hGLP-1R [6]. Besides, the EC50 at human GLP1-R was 0.0381 µM. Moreover, the “Body weight (%)” value in series [4] (10 nmol/kg SC Q3D, 14 days) was 85.58 +/− 3.20**** %. The “Internalization % TOP” value on human GLP1-R was determined as 46.3%.
For the substance “H-Y[Aib]QGTFTSDFS[Orn][αMeL]LDKK([AEEA-γGlu-C18 diacid])AQ[Aib]AFIEYLLAGGPSSGEPPPSGS-NH2 [Example 94]”, the “Relative Papp” value in series [7] worked out at 0.02. Further, the EC50 on hGLP-1R [1] worked out at 0.00263 µM; on hGIPR [2], 0.000154 µM; at hGcgR it was 0.00816 µM; on hGIPR [5], 0.0214 µM; on human GcgR it was 1.22 µM; on hGLP-1R [6], 0.48 µM. The EC50 at human GLP1-R worked out at 0.0371 µM. The “Body weight (%)” value in [4] (10 nmol/kg SC Q3D, 14 days) was 84.92 +/− 1.79**** %. Besides, the “Internalization % TOP” value at human GLP1-R was found to be 47.2%.
“H-Y[Aib]QGTFTSDYSK[αMeL]LDKK([AEEA-γGlu-C20 diacid])AQQAFVQWLIEGGPSSGEPPPSEG-NH2 [Example 315]”: the concentration for a half-maximal effect (EC50) on hGLP-1R [1] was 0.000508 µM; on hGIPR [2], 0.000398 µM; at hGLP-1R [3] it was 0.00376 µM; at hGcgR, 0.00405 µM; at hGIPR [5], 0.0851 µM; on human GcgR it was 1.56 µM. Besides, the concentration for a half-maximal effect (EC50) at hGLP-1R [6] was 0.14 µM. For the same substance, on hGLP-1R [3], the “% Stimulation Max” value is listed as 29.7%. Also, the “Body weight (%)” value in [4] (10 nmol/kg SC Q3D, 14 days) is 79.76 +/− 1.72**** %.
In the case of “H-[NMeY][Aib]QGT[αMeF]TSDYSSLLDKIAAK([AEEA-AEEA-γGlu-C20 diacid])AFIEYLLEGGPSSGEPPPSEG-NH2 [Example 297]”, the EC50 on hGLP-1R [1] is 0.00296 µM; at hGIPR [2], 0.000626 µM; at hGLP-1R [3], 0.0602 µM; on hGcgR, 0.00326 µM; at hGIPR [5], 0.325 µM; at human GcgR it was 2.32 µM. Moreover, at hGLP-1R [6], the EC50 was determined as 1.13 µM. For the same substance, the “% Stimulation Max” value on hGLP-1R [3] was determined as 33.5%. Moreover, the “Body weight (%)” value in series [4] (10 nmol/kg SC QD, 16 days) turned out to be 48.42 ± 2.86 %.
As to “Y[Aib]QGTFTSDFS[Orn][αMeL]LDKK([AEEA-γGlu-C18 diacid])AQ[Aib]AFIEYLLEGGPSSGAPPPGGS-NH2 [Example 62]”, in series [7], the “Relative Papp” value amounted to 0.03. In addition, the concentration giving a half-maximal response (EC50) at hGLP-1R [1] is 0.00272 µM; at hGIPR [2] it was 0.000146 µM; at hGcgR it was 0.00396 µM; on hGIPR [5] it was 0.0312 µM; on human GcgR, 0.396 µM; at hGLP-1R [6] it was 0.299 µM. The EC50 on human GLP1-R turned out to be 0.0403 µM. In series [4] (10 nmol/kg SC Q3D, 14 days), the “Body weight (%)” value is recorded as 88.05 +/− 1.08*** %. Besides, the “Internalization % TOP” value on human GLP1-R is 44.9%.
